In patent US20210308173A1, “PHARMACEUTICAL COMPOSITION COMPRISING CYCLODEXTRIN COMPLEXES OF ANETHOLE TRITHIONE OR DERIVATIVES THEREOF” (priority 2018, published 2021):
Converted amounts (≈) assume the structure as drawn.

Assays:
[1] = Incompatibility of AOL with lipid carriers (visual examination); format: physicochemical
Procedure: 100 mg of AOL were successfully dissolved in 20 mL of polyglyceryl-3 dioleate (Plurol® Oleique). A homogenous vividly orange colored solution was obtained with less than 5 minutes of magnetic stirring.
The obtained solution turned greed with obvious aspect and odor having turned rancid.
100 mg of AOL were successfully dissolved in 20 mL of 2-[2,3-bis(2-hydroxyethoxy)propoxy]ethanol; hexadecanoic acid; octadecanoic acid (Labrafil® M1944). A homogenous orange colored solution was obtained with less than 5 minutes of magnetic stirring.
The obtained solution turned dark green.
A new solution of 5 mg/mL AOL in Labrafil® M1944 and stocked in a hermetically closed recipient.

[2] = background statement; cited from earlier work
[3] = Cyclodextrin solubilization screening of AOL; format: physicochemical; conditions: water, 25 °C, thermodynamic from solid, read-out: intrinsic solubility in water
[4] = Stability versus formulation according to Dollo et al.; format: physicochemical; conditions: formulation of the invention vs formulation according to Dollo et al.
Description: Consequently, the formulations wherein anethole trithione and derivatives thereof present an improved solubility and stability are still an unmet need.

[5] = Optimal SBE-β-CD/AOL molar ratio for solubilization; format: physicochemical
Description: Using an optimized AOL/SBE-β-CD molar ratio enabled the Applicant to overcome all the aforementioned shortcomings. Indeed, the obtained formulation can be injected without exceeding the daily cyclodextrin administration threshold, solubilizes AOL without presenting a prohibiting viscosity. The chemical stability of AOL was maintained by such a formulation. […] Without willing to be bound by a theory the complex association (interaction outside the cavity of the cyclodextrin) enhances its solubility without hindering its bioavailability when the formulation is administered to a subject in need thereof.

[6] = Co-solvent addition: AOL solubility; format: physicochemical; conditions: for solubility at 4 h: aqueous with cosolvent or surfactant or cyclodextrin, thermodynamic from solid
Procedure: SBE-β-CD compatible excipients, namely polyethylene glycol and polysorbate (Tween), were evaluated for their AOL aqueous solubilizing power. Screening was carried out in same conditions as that of solubilization screening by cyclodextrins (see Example 3).
Briefly, 20% (w/w) solutions of each excipient were prepared. An excess of AOL was added and the solutions were analyzed by HPLC after 4 hours of stirring.
The effect of the combination of SBE-β-CD and Tween 80 was measured in a comparative assay by solubilizing AOL in: (A) Tween 80, 10% (w/w); (B) SBE-β-CD 10% (w/w) (C) Tween 80 and SBE-β-CD 10% (w/w) each; (D) Tween 80 20% (w/w) (E) SBE-β-CD 20% (w/w); and (F) Tween 80 and SBE-β-CD 20% (w/w) each.
Further assays, resumed in Tables 7 and 8, confirmed that Tween 80/SBE-β-CD is a promising excipient mixture for the solubilization of AOL.

For `COc1ccc(-c2cc(=S)ss2)cc1` [AOL, 5-(4-methoxyphenyl)-3H-1,2-dithiole-3-thione], the “visual examination of the solution” value ([1]; 5 mg/mL in Labrafil M1944, hermetically closed recipient, 24 hours at room temperature) was “same stability problem”, the “magnetic stirring time to homogenous solution” value ([1]; 100 mg in 20 mL Labrafil M1944) was “less than 5 minutes” and the “magnetic stirring time to homogenous solution” value ([1]; 100 mg in 20 mL polyglyceryl-3 dioleate (Plurol Oleique)) was “less than 5 minutes”. For the same compound, the “visual examination of the solution” value ([1]; Labrafil M1944, after 24 hours at room temperature) was “intense color change”, the “visual examination of the solution” value ([1]; Plurol Oleique, after 24 hours at room temperature) was “intense color change” and the “stability within lipid carriers” value ([1]; period of 24 hours, visual observation) was “unstable”. The intrinsic aqueous solubility [2] was “less than 0.3 mg/L”, the solubility [3] was roughly 0.2 µg/mL (≈ 0.832 µM) and the “stability of the active compound” value [4] was “significantly more stable”. For the same compound, the “SBE-β-CD/AOL molar ratio at which optimal solubilization was observed” value [5] was greater than 29, the “chemical stability on storage” value ([6]; Tween 80 at 20% (w/w) aqueous media) was “chemical stability issues” and the solubility at 4 h ([6]; aqueous HP-β-CD solution, HP-β-CD 20% (w/w), Cremophor 10% (w/w)) was 545 µg/mL. The solubility at 4 h ([6]; aqueous HP-β-CD solution, HP-β-CD 20% (w/w), Cremophor 20% (w/w)) was 814 µg/mL, the solubility at 4 h ([6]; aqueous HP-β-CD solution, HP-β-CD 20% (w/w), PVP 12PF 0.5% (w/w)) was 296 µg/mL and the solubility at 4 h ([6]; aqueous HP-β-CD solution, HP-β-CD 20% (w/w), PVP 12PF 2.0% (w/w)) was 291 µg/mL. The solubility at 4 h ([6]; aqueous HP-β-CD solution, HP-β-CD 20% (w/w), Tween 80 2% (w/w)) was 329 µg/mL, the solubility at 4 h ([6]; aqueous HP-β-CD solution, HP-β-CD 20% (w/w), Tween 80 10% (w/w)) was 396 µg/mL and the solubility at 4 h ([6]; aqueous HP-β-CD solution, HP-β-CD 20% (w/w), Tween 80 20% (w/w)) was 660 µg/mL. It also gave a solubility at 4 h ([6]; aqueous HP-β-CD solution, HP-β-CD 20% (w/w), co-solvent 0% (w/w)) of 283 µg/mL, a solubility at 4 h ([6]; aqueous HP-β-CD solution, HP-β-CD 30% (w/w), Cremophor 10% (w/w)) of 642 µg/mL and a solubility at 4 h ([6]; aqueous HP-β-CD solution, HP-β-CD 30% (w/w), PVP 12PF 0.5% (w/w)) of 532 µg/mL. It also gave a solubility at 4 h ([6]; aqueous HP-β-CD solution, HP-β-CD 30% (w/w), PVP 12PF 2.0% (w/w)) of 517 µg/mL, a solubility at 4 h ([6]; aqueous HP-β-CD solution, HP-β-CD 30% (w/w), Tween 80 2% (w/w)) of 426 µg/mL and a solubility at 4 h ([6]; aqueous HP-β-CD solution, HP-β-CD 30% (w/w), Tween 80 10% (w/w)) of 439 µg/mL. For the same compound, the solubility at 4 h ([6]; aqueous HP-β-CD solution, HP-β-CD 30% (w/w), Tween 80 20% (w/w)) was 1680 µg/mL, the solubility at 4 h ([6]; aqueous HP-β-CD solution, HP-β-CD 30% (w/w), co-solvent 0% (w/w)) was 540 µg/mL and the solubility at 4 h ([6]; aqueous SBE-β-CD solution, SBE-β-CD 20% (w/w), Cremophor 10% (w/w)) was 644 µg/mL. It also gave a solubility at 4 h ([6]; aqueous SBE-β-CD solution, SBE-β-CD 20% (w/w), PVP 12PF 0.5% (w/w)) of 389 µg/mL, a solubility at 4 h ([6]; aqueous SBE-β-CD solution, SBE-β-CD 20% (w/w), PVP 12PF 2.0% (w/w)) of 371 µg/mL and a solubility at 4 h ([6]; aqueous SBE-β-CD solution, SBE-β-CD 20% (w/w), Tween 80 2% (w/w)) of 374 µg/mL. The solubility at 4 h ([6]; aqueous SBE-β-CD solution, SBE-β-CD 20% (w/w), Tween 80 10% (w/w)) was 587 µg/mL, the solubility at 4 h ([6]; aqueous SBE-β-CD solution, SBE-β-CD 20% (w/w), Tween 80 20% (w/w)) was 829 µg/mL and the solubility at 4 h ([6]; aqueous SBE-β-CD solution, SBE-β-CD 20% (w/w), co-solvent 0% (w/w)) was 375 µg/mL. The solubility at 4 h ([6]; aqueous SBE-β-CD solution, SBE-β-CD 30% (w/w), Cremophor 10% (w/w)) was 814 µg/mL, the solubility at 4 h ([6]; aqueous SBE-β-CD solution, SBE-β-CD 30% (w/w), PVP 12PF 0.5% (w/w)) was 668 µg/mL and the solubility at 4 h ([6]; aqueous SBE-β-CD solution, SBE-β-CD 30% (w/w), PVP 12PF 2.0% (w/w)) was 670 µg/mL. For the same compound, the solubility at 4 h ([6]; aqueous SBE-β-CD solution, SBE-β-CD 30% (w/w), Tween 80 2% (w/w)) was 630 µg/mL, the solubility at 4 h ([6]; aqueous SBE-β-CD solution, SBE-β-CD 30% (w/w), Tween 80 10% (w/w)) was 616 µg/mL and the solubility at 4 h ([6]; aqueous SBE-β-CD solution, SBE-β-CD 30% (w/w), Tween 80 20% (w/w)) was 1280 µg/mL. The solubility at 4 h ([6]; aqueous SBE-β-CD solution, SBE-β-CD 30% (w/w), co-solvent 0% (w/w)) was 685 µg/mL, the “influence of PVP 12PF on solubility” value ([6]; cyclodextrin media) was “did not had any influence” and the “solubility in Tween 80 compared with SBE-β-CD solutions” value ([6]; same temperature and concentration of excipient) was “higher solubility in Tween 80”.
